Experimental data: patent US20160101148A1, “TREATMENT AND PREVENTION OF BACTERIAL SKIN INFECTIONS USING ORITAVANCIN” (priority 2013, published 2016)
Values after ≈ are worked out from the molar mass of the structure shown.

Key:
[1] = system: ABSSSI suspected or proven to be due to a gram-positive pathogen, including MRSA; experiment: SOLO I Phase 3 trial, efficacy: single dose IV oritavancin versus IV vancomycin for 7 to 10 days; assay type: in vivo, human; conditions: for Lesion Size Reduction ≧20% From Baseline / Primary efficacy endpoint response rate (cessation of spread, absence of fever, no rescue antibiotics): ECE 48 to 72 hours; for Investigator-Assessed Clinical Cure / Sustained Clinical Cure: PTE 7 to 14 days after EOT
Method: The primary efficacy endpoint comprised: 1) cessation of spreading or reduction in the size of the baseline lesion, 2) absence of fever, and 3) no rescue antibiotic, at 48 to 72 hours, for the modified intent to treat population.
The study design was consistent with current guidelines from FDA (U.S. Food and Drug Administration. Guidance for Industry Acute Bacterial Skin and Skin Structure Infections: Developing Drugs for Treatment (DRAFT GUIDANCE). Available via Internet at the URL containing: fda.gov/downloads/Drugs/GuidanceComplianceRegulatoryInformation/Guidances/ucm071185.p df) and EMA (European Medicines Agency Committee for Medicinal Products for Human Use. Addendum to the note for guidance on evaluation of medicinal products indicated for treatment of bacterial infections (CHMP/EWP/558/95 REV 2) to address indication-specific clinical data (draft). 2012. Available via Internet at the URL containing: ema.europa.eu/docs/en_GB/document_library/Scientific_guideline/2012/07/WC500129443.pdf) and Foundation for National Institutes of Health guidance was considered for analyses (Talbot G H etl. Clin Infect Dis. 2012. 55(8):1114-1121). The protocol was approved by institutional review boards/ethics committees and all patients provided written informed consent. The study was conducted from January 2011 through October 2012 at 46 study centers in Mexico, Spain, Germany, Romania, Russia, Ukraine, Israel, India, and the United States. […] Aztreonam and metronidazole were permitted for gram-negative and anaerobic cover, respectively.
Clinical evaluations were performed at the following time points: Early Clinical Evaluation (ECE) at 48 to 72 hours after the initiation of the study drug infusion, End of Therapy (EOT) at Day 7 to Day 10 or the day the patient stopped study drug or changed to non-study drug therapy for primary ABSSSI, Day 10 Evaluation defined as 10 days after the initiation of the study drug infusion, Post Therapy Evaluation (PTE) at 7 to 14 days after the EOT visit, and Safety Follow-up at 60 days (+7 days) after the initiation of the study drug infusion. Safety data was reviewed by a data monitoring committee.
Eligible patients were to be at least 18 years of age with diagnosis of ABSSSI that was suspected or proven to be due to a gram-positive pathogen and which required at least 7 days of IV therapy. The diagnosis of ABSSSI was defined as wound infections (either traumatic or surgical in origin), cellulitis/erysipelas or major cutaneous abscess with surrounding erythema, edema, and/or induration of at least 75 cm^2. The onset of wound infections or cellulitis/erysipelas must have occurred within 7 days prior to randomization. Patients also had to present with signs and symptoms of systemic inflammation. Patients were not eligible to participate if they received systemic or topical antibacterial therapy with gram-positive activity within the preceding 14 days.
The primary efficacy endpoint was a composite outcome of 1) cessation of spreading or reduction in the size of the baseline lesion, 2) absence of fever, and 3) no rescue antibiotic medication at the ECE visit, for the mITT population.
The secondary efficacy outcomes were as follows: 1) Lesion area decrease by ≧20% from Baseline at ECE, 2) Investigator-Assessed Clinical Response at PTE, 3) Sustained Clinical Response at PTE.
The analyses were performed for patients who had lesion area assessments at baseline and ECE using the mITT and CE populations.
If a patient had clinical failure assessed beyond the PTE visit window, the patient was considered as a clinical failure. If a patient had clinical success assessed beyond the PTE visit window, a) and if the patient had clinical failure before the PTE visit, the patient was considered a clinical failure at PTE or b) if the patient had clinical success also before the PTE visit, the patient was considered a clinical success at PTE.

[2] = SOLO II Phase 3 trial, safety; assay type: in vivo, human
Source text: Safety profiles, measured at any point up to 60 days after treatment, were similar across treatment groups in SOLO II.

[3] = system: S. aureus strains (14 mecC MRSA, 2 mecA MRSA, ATCC 29213 MSSA); experiment: Broth microdilution MIC determination; assay type: cell-based, Staphylococcus aureus; conditions: Staphylococcus aureus
Method: The S. aureus (SA) strains used in this study were: ATCC 43300 (mecA methicillin-resistant SA [MRSA]); ATCC 33591 (mecA MRSA), ATCC 29213 (methicillin-susceptible SA; quality control strain) and 14 mecC MRSA obtained from the Staten Serum Institute (Copenhagen, Denmark).
Tests with oritavancin included polysorbate-80 (final test concentration of 0.002%) as described (CLSI 2012a; Arhin et al., 2008). Tests with daptomycin included CaCl2 at a concentration of 50 mg/L. MICs were read after 24 h incubation.

## CN[C@H](CC(C)C)C(=O)N[C@H]1C(=O)N[C@@H](CC(N)=O)C(=O)N[C@H]2C(=O)N[C@H]3C(=O)N[C@H](C(=O)N[C@H](C(=O)O)c4cc(O)cc(O)c4-c4cc3ccc4O)[C@H](O)c3ccc(c(Cl)c3)Oc3cc2cc(c3O[C@@H]2O[C@H](CO)[C@@H](O)[C@H](O)[C@H]2O[C@H]2C[C@](C)(N)[C@H](O)[C@H](C)O2)Oc2ccc(cc2Cl)[C@H]1O [Vancomycin, vancomycin]
[1]; CE
  Lesion Size Reduction ≧20% From Baseline: 88.7%
  Primary efficacy endpoint response rate (cessation of spread, absence of fever, no rescue antibiotics): 86.1%
  Investigator-Assessed Clinical Cure: 93.2%
[1]; MRSA MicroE
  Lesion Size Reduction ≧20% From Baseline: 89.0%
  Primary efficacy endpoint response rate (cessation of spread, absence of fever, no rescue antibiotics): 86.6%
  Investigator-Assessed Clinical Cure: 97.6%
[1]; MRSA MicroITT
  Lesion Size Reduction ≧20% From Baseline: 84.0%
  Primary efficacy endpoint response rate (cessation of spread, absence of fever, no rescue antibiotics): 80.0%
  Investigator-Assessed Clinical Cure: 83.0%
  Sustained Clinical Cure: 69.0%
[1]; MRSA MicroITT, listed as vancomycin
  Lesion Size Reduction ≧20% From Baseline: 84.0%
[1]; mITT
  Lesion Size Reduction ≧20% From Baseline: 82.9%
  Primary efficacy endpoint response rate (cessation of spread, absence of fever, no rescue antibiotics): 78.9%
  Investigator-Assessed Clinical Cure: 80.0%
  Sustained Clinical Cure: 69.7%
[1]; mITT, listed as vancomycin
  Lesion Size Reduction ≧20% From Baseline: 82.9%
  Primary efficacy endpoint response rate (cessation of spread, absence of fever, no rescue antibiotics): 78.9%
  Investigator-Assessed Clinical Cure: 80.0%
  Sustained Clinical Cure: 69.7%
[2]
  Treatment emergent adverse events considered by investigators as related to study drug: 25.5%
[2]; up to 60 days after treatment
  Patients reported to experience at least one adverse event: 50.2%
[3]
  MIC90: 1 µg/mL (≈ 0.69 µM)
[3]; 57147 MRSA (mecC)
  MIC: 1 µg/mL (≈ 0.69 µM)
[3]; 70611 MRSA (mecC)
  MIC: 1 µg/mL (≈ 0.69 µM)
[3]; 73348 MRSA (mecC)
  MIC: 1 µg/mL (≈ 0.69 µM)
[3]; 73415 MRSA (mecC)
  MIC: 1 µg/mL (≈ 0.69 µM)
[3]; 73617 MRSA (mecC)
  MIC: 1 µg/mL (≈ 0.69 µM)
[3]; 73829 MRSA (mecC)
  MIC: 1 µg/mL (≈ 0.69 µM)
[3]; 75814 MRSA (mecC)
  MIC: 1 µg/mL (≈ 0.69 µM)
[3]; 76918 MRSA (mecC)
  MIC: 1 µg/mL (≈ 0.69 µM)
[3]; 77431 MRSA (mecC)
  MIC: 1 µg/mL (≈ 0.69 µM)
[3]; 77601 MRSA (mecC)
  MIC: 1 µg/mL (≈ 0.69 µM)
[3]; 77950 MRSA (mecC)
  MIC: 1 µg/mL (≈ 0.69 µM)
[3]; 77964 MRSA (mecC)
  MIC: 1 µg/mL (≈ 0.69 µM)
[3]; 78085 MRSA (mecC)
  MIC: 1 µg/mL (≈ 0.69 µM)
[3]; 78651 MRSA (mecC)
  MIC: 1 µg/mL (≈ 0.69 µM)
[3]; ATCC 29213 (MSSA)
  MIC: 1 µg/mL (≈ 0.69 µM)
[3]; ATCC 29213 / ATCC 33591 / MRSA / MSSA, ATCC 33591 MRSA (mecA)
  MIC: 1 µg/mL (≈ 0.69 µM)
[3]; ATCC 29213 / ATCC 43300 / MRSA / MSSA, ATCC 43300 MRSA (mecA)
  MIC: 1 µg/mL (≈ 0.69 µM)
[3]; all strains tested
  MIC: 1 µg/mL (≈ 0.69 µM)
